This is an account of results in patent publication EP0711275B1, “(THIO)CARBIMIDINIC ACID DERIVATIVES AND MEDICAMENTS CONTAINING THE SAME” (BOEHRINGER MANNHEIM GMBH, priority 1993, dated 1995).

Converted amounts (≈) assume the structure as drawn. Where two headings read alike, the source gives them in different places.

Test [1] relates to HIV-1 (Isolat HTLV III B). Nature of the test: MT2/MTT test system (antiviral activity in HIV-1-infected MT2 cells). Type of test: cell-based. To be noted: read-out: IC50-Werte MT2. The text has this: (§1) Die antivirale Wirksamkeit einiger ausgewählter Substanzen wurde sowohl in vivo als auch in vitro (Hemmung der reversen Transkriptase RT) untersucht. a) MT2/MTT-Testsystem (in vivo) MT2-Zellen werden mit HIV-1 (Isolat HTLV III B) infiziert. Nach 7 Tagen Inkubation erfolgt der MTT-Test, der die Vitalität der Zellen bestimmt. Die Vitalität der Zellen korreliert mit dem Ausmaß der Virusproduktion. In der folgenden Tabelle werden IC50-Werte angegeben, d. h. diejenige Konzentration der Substanzen, die eine 50%-ige Inhibierung bewirken. b) Hemmung der RT (in vitro) In einem nicht radioaktiven Mikrotiterplattentest wird das Ausmaß der Inhibierung der Aktivität der RT bestimmt. Die Menge an eingebauten Nukleotiden in die zu synthetisierende DNA wird photometrisch bestimmt.

Test [2] deals with T1, reversen Transkriptase RT (Human immunodeficiency virus type 1 group M subtype B, UniProt P04585).
T1 construct: Hemmung der reversen Transkriptase RT
Nature of the test: Inhibition of RT, non-radioactive microtitre plate test. The test is classed as biochemical. The note with it: inhibition of RT activity; incorporated nucleotides determined photometrically; read-out: IC50-Werte RT (converted).
Description: as §1

[3] abbreviates: Human immunodeficiency virus 1, 168 h, MT2-Zellen infected with HIV-1 (Isolat HTLV III B), 7 days incubation, MTT test of cell vitality.

For the molecule `N=C(NC(=S)Nc1ccc(Cl)cc1)SC1CCCCC1` [Beispiel 2f, N-(4-Chlorphenylaminothiocarbonyl)thiocarbamidinsäure-cyclohexylester], the 50% inhibitory concentration (IC50) is below 3 µg/mL in test [1] (setting [3]) and 0.314 µM in test [2].

As for `CC(C)CC(C)SC(=N)NC(=S)Nc1cccc(F)c1` (stereo not shown) [Beispiel 2b, N-(3-Fluorphenylaminothiocarbonyl)thiocarbamidinsäure 2-(4-methylpentyl)ester], the IC50 in test [1] (setting [3]) is 3.3 µg/mL (≈ 10.5 µM); in test [2] it was 3.19 µM.

Take `N=C(NC(=S)Nc1ccc(Cl)cc1)SCc1ccccc1` [Beispiel 2e, N-(4-Chlorphenylaminothiocarbonyl)thiocarbamidinsäure-benzylester]: the IC50 in test [1] (setting [3]) was below 3 µg/mL; in test [2], 7.29 µM.

For the molecule `CCCCSC(=N)NC(=S)Nc1ccc(Cl)cc1` [Beispiel 2j, N-(4-Chlorphenylaminothiocarbonyl)thiocarbamidinsäure-butylester], the half-inhibitory concentration (IC50) in test [1] (setting [3]) was below 3 µg/mL; in test [2] it was 2.52 µM.

Regarding `N=C(NC(=S)Nc1ccc(Cl)cc1)SCc1cccc(Cl)c1` [Beispiel 2g, N-(4-Chlorphenylaminothiocarbonyl)thiocarbamidinsäure-3-chlorbenzylester], the IC50 in test [1] (Human immunodeficiency virus 1, MT2, 168 h) was below 3 µg/mL; in test [2], 0.891 µM.

As to `N=C(NC(=S)Nc1ccc(Cl)cc1)Sc1ccccc1` [Beispiel 2n, N-(4-Chlorphenylaminothiocarbonyl)thiocarbamidinsäure-phenylester], the IC50 in test [2] is 2.8 µM.

With `CC(C)CC(C)SC(=N)NC(=S)Nc1ccc(Cl)cc1` (stereo not shown) [Beispiel 1, N-(4-Chlorphenylaminothiocarbonyl)thiocarbamidinsäure 2-(4-methylpentyl)ester], the IC50 is 0.6 µg/mL (≈ 1.82 µM) in test [1] (setting [3]) and 1.82 µM in test [2].
